Consider 13 molecules from patent publication US20250091989A1, “SMALL MOLECULE PROTEIN SYNTHESIS MODULATORS” (Interdict Bio, Inc., priority 2023, published 2025).

pIC50: −log10 of the molar value.

Broadly, the pIC50 is the negative decadic logarithm of the IC50, by convention in mol/L.

Type in all cases: biochemical
Common to all, as to conditions: HeLa S3 lysate, sfGFP/mCherry ratio, 2 hrs at 30° C.

One experiment relates to ALK. Kind of experiment: In vitro transcription-translation (IVTT) reporter assay, ALK test sequence. Summed up: (§1)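 Coupled transcription-translation in HeLa S3 lysate with reporter plasmids encoding mCherry-P2A-3×FLAG-TEST-sfGFP behind an EMCV IRES. Compounds were half-log titrated (30 μM-0.1 μM in DMSO dilution plate) into master mix, then DNA was added. Reactions ran 2 hrs at 30° C, were PBS-quenched and read for fluorescence.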
(Reporter assays use an easily measured gene product as a stand-in for the process of interest.)

The next experiment has as its system MYC. As to the kind of experiment: In vitro transcription-translation (IVTT) reporter assay, MYC test sequence. The method in brief:
as §1

A further experiment deals with KRAS G12D. Kind of experiment: In vitro transcription-translation (IVTT) reporter assay, KRAS G12D test sequence. The method in brief: as §1
For another experiment, the system named is CCND1. Kind of experiment: In vitro transcription-translation (IVTT) reporter assay, CCND1 test sequence. The text has this:
(§2) All reporter constructs have been cloned into the pT7CFE1-CHis plasmid (ThermoFisher #88860) using Gibson assembly procedures (NEB #E2611L). The parental pT7CFE1-CHis plasmid contains an EMCV IRES at the 5′UTR for translation initiation, a multiple-cloning site (MCS) for gene insertion, an optional C-terminal His-epitope tag, and polyA sequence in the 3′UTR to regulate mRNA stability. All reporters are designed to be inserted at the MCS to include a red fluorescent protein (mCherry), P2A self-cleaving peptide which releases the preceding mCherry protein product, and a fusion open reading frame containing a 3×FLAG epitope, a peptide sequence of interest (TEST), and green fluorescent protein (sfGFP).
(§3) Construct Plasmid Preparation: All plasmids are isolated from MACH1 cells (ThermoFisher) grown overnight in ampicillin-containing luria broth, and purified using ZymoPure Express Plasmid Midiprep Kit (Zymo Research). Constructs are sequenced verified and diluted to a working concentration of 110 ng/μL.
(§4) HeLa S3 Lysate Preparation: HeLa S3 cell pellets are acquired from Ipracell/Ipratech (Belgium) and shipped as 4 mL frozen cell pellets on dry ice for storage at −80° C. until use. The procedure for lysate preparation is as follows. Prepare 1× Lysis Buffer, cold and stored on ice:
(§5) Each preparation takes 8 cell pellets (4 ml packed volume each, approximately 1.0×10^9 cells per pellet). Thaw cell pellets from −80° C. on ice for 90 mins. Lay pellets horizontally on top of the ice and rotate every 30 mins to ensure even thawing. Once thawed, add 4 mL of cold lysis buffer to each pellet, and using a serological pipet, gently pipet up and down to break up clumps. Incubate resuspended cells in ice for an additional 30 mins (plunged into ice). During 30 min incubation, rinse and RNase-zap (Ambion) glass dounces (use loose pestle “A”), gently dry and place on ice until needed. Prepare RNase-free Eppendorf tubes for spinning and for batch storage. Add batch labels to 1.5-1.7 mL RNase-free microcentrifuge tubes (labeling scheme below). Each batch will have an extra 1.5-1.7 mL RNase-free microcentrifuge tube for 40 μL of lysate, label the top of this tube (labeling scheme below). After 30 min incubation, transfer all 8 mL of cell pellet to dounce. Cell lysis is complete after douncing 100 times. Aliquot cell lysis into 1.5-1.7 mL temporary-microcentrifuge tubes. Place tubes in centrifuge with “fins” out, and spin at 1,200 xg for 5 mins. After the first spin use a 1 mL pipet to resuspend each tube and repeat spin. This acts as an additional lysis step, is more vigorous and increases lysate yield. During second spin get liquid N2 and a fresh conical tube on ice.
(§6) After spin is complete, transfer supernatant (lysate) from microcentrifuge tubes into the 50 mL conical tube and keep on ice. Repeat steps 10-14 for all other cell pellets until completed. Once all cell lysate has been transferred to the 50 mL conical tube pipet to mix so the solution is homogenous. Transfer 1 mL of lysate into batch-labeled microcentrifuge tubes and flash freeze in liquid nitrogen. Be sure to pipet up and down to mix throughout transfer step. Place all tubes in the […] for long-term storage.
(§7) In vitro transcription-translation assay setup: Each assay includes a master mix containing lysate and shared components, a 96-well plate containing compound titrations for testing, a 96-well DNA plate with reporter constructs to be tested, 96-well skirted PCR plates, and 96-well flat-bottom, black, fluorescent assay plates. […]

The next experiment concerns MCL-1. As to the kind of experiment: In vitro transcription-translation (IVTT) reporter assay, MCL-1 test sequence.
Text: as §2, §3, §4, §5, §6, §7

Take `COc1ccc(C[C@H]2NC[C@H](O)[C@H]2OC(=O)CC(C)C)cc1` [V187035, (2R,3S,4S)-4-hydroxy-2-[(4-methoxyphenyl)methyl]pyrrolidin-3-yl 3-methylbutanoate]: the pIC50 in the experiment with ALK, in the experiment on MYC, in the experiment on KRAS G12D, in the experiment on CCND1 and in the experiment on MCL-1 was more than 5.00 in each case.
For `COc1ccc(C[C@H]2NC[C@H](O)[C@H]2OC(=O)Cc2ccc(Cl)cc2)cc1` [V187055, (2R,3S,4S)-4-hydroxy-2-[(4-methoxyphenyl)methyl]pyrrolidin-3-yl 2-(4-chlorophenyl)acetate; trifluoroacetic acid], the pIC50 in the experiment with MYC, with KRAS G12D, in the experiment with CCND1 and in the experiment on MCL-1 was more than 5.00 throughout.
For `COc1ccc(C[C@H]2NC[C@H](O)[C@H]2OC(=O)Cc2cc(Br)cs2)cc1` [V187070, (2R,3S,4S)-4-hydroxy-2-[(4-methoxyphenyl)methyl]pyrrolidin-3-yl 2-(4-bromothiophen-2-yl)acetate], the pIC50 with MYC, in the experiment on KRAS G12D, in the experiment on CCND1 and with MCL-1 was more than 5.00 in each case.
As for `COc1ccc(C[C@H]2NC[C@H](O)[C@H]2OC(=O)Cc2cnccn2)cc1` [V187088, (2R,3S,4S)-4-hydroxy-2-[(4-methoxyphenyl)methyl]pyrrolidin-3-yl 2-(pyrazin-2-yl)acetate], the pIC50 with ALK, with MYC, with KRAS G12D and with CCND1 was more than 5.00 throughout.
Take `COc1ccc(C[C@H]2NC[C@H](O)[C@H]2OC(=O)CCNC(C)C)cc1` [V187155, (2R,3S,4S)-4-hydroxy-2-[(4-methoxyphenyl)methyl]pyrrolidin-3-yl 3-(isopropylamino)propanoate; trifluoroacetic acid]: the pIC50 is 4.70 to 5.00 in the experiment on ALK, less than 4.52 in the experiment on MYC, less than 4.52 with KRAS G12D and more than 5.00 in the experiment with CCND1.
Take `COc1ccc(C[C@H]2NC[C@H](O)[C@H]2OC(=O)CC(F)(F)F)cc1` [V187162, (2R,3S,4S)-4-hydroxy-2-[(4-methoxyphenyl)methyl]pyrrolidin-3-yl 3,3,3-trifluoropropanoate; trifluoroacetic acid]: the pIC50 in the experiment with ALK, in the experiment on MYC, with KRAS G12D and in the experiment on CCND1 was more than 5.00 each time.
With `COc1ccc(C[C@H]2NC[C@H](O)[C@H]2OC(=O)CNC2CC(F)(F)C2)cc1` [V187172], the pIC50 in the experiment with ALK, with MYC, in the experiment with KRAS G12D and with CCND1 was more than 5.00 each time.
Turning to `COc1ccc(C[C@H]2NC[C@H](O)[C@H]2OC(C)=O)cc1F` [V187569], the pIC50 with MYC, with CCND1 and with MCL-1 was more than 5.00 each time.
For `CC(=O)O[C@@H]1[C@@H](O)CN[C@@H]1Cc1ccc(-c2cn(Cc3ccccc3)nn2)cc1` [V187750], the pIC50 with ALK, in the experiment with MYC, with KRAS G12D and in the experiment with CCND1 was more than 5.00 each time.
For the molecule `COc1ccc(C[C@H]2NC[C@H](O)[C@H]2OC(C)=O)cc1C#N` [V188045], the pIC50 in the experiment with MYC, with CCND1 and in the experiment on MCL-1 was less than 4.52 each time.
With `COc1ccc(C[C@H]2NC[C@H](O)[C@H]2OC(C)=O)cc1Cl` [V188046], the pIC50 in the experiment with MYC, in the experiment with CCND1 and with MCL-1 was more than 5.00 each time.
Consider `CC(=O)O[C@@H]1[C@@H](O)CN[C@@H]1Cc1ccc([N+](=O)[O-])cc1` [V188168, (2R,3S,4S)-4-hydroxy-2-[(4-nitrophenyl)methyl]pyrrolidin-3-yl acetate], for which the pIC50 in the experiment on MYC, in the experiment with CCND1 and in the experiment with MCL-1 was more than 5.00 each time.
With `COc1ccc(C[C@H]2NC[C@](C)(O)[C@H]2OC(C)=O)cc1` [V188182, (2R,3S,4S)-4-hydroxy-2-[(4-methoxyphenyl)methyl]-4-methylpyrrolidin-3-yl acetate], the pIC50 with MYC and in the experiment on MCL-1 was less than 4.52 throughout.
